Experiment: selective molecular separation (partitioning) of local anesthetics by a microemulsion having an electron deficient aromatic ring
Assay type: physicochemical
Conditions: microemulsion with electron deficient ring oil, e.g. 1,3 di(trifluoromethyl) benzene
Source text: In one embodiment, the materials and/or methods of the subject invention can be used to separate drugs of the same class. A specific embodiment involves separating local anesthetics. […] This is accomplished by exploiting differences in electron density in π electron orbitals.
In these molecules, the π electron orbitals are aligned at right angles to the planar surface of the benzene rings. Differences in substitution by the side chain in cocaine or bupivacaine cause either electron depletion (δ^+) or enrichment (δ^−). Such characteristics can be used to selectively separate these molecules.
According to the subject invention, any oil or “mating” molecule with a benzene ring is acceptable in providing a microemulsion system, as long as the substitutions are electron withdrawing from the benzene ring into the side chains. In this case, the electron deficient ring is a component of a molecule (e.g., 1,3 di(trifluoromethyl) benzene) that, at room and physiological temperatures, is an oil (FIG. 3). Thus, these oil molecules can be used to construct the lipid core of a microemulsion or may be added as solutes into the lipid core of a microemulsion wherein another oil serves as the lipid core.

partitioning into the microemulsion (molecular separation, FIG. 4): selectively partition
Structure (SMILES): CCCCN1CCCCC1C(=O)Nc1c(C)cccc1C (stereo not shown) [bupivacaine]
